For test [1], the target named is Insulin receptor-related protein (Homo sapiens) (UniProt P14616). Briefly: Selectivity interaction (KinomeScan (DiscoverX)) EUB0000595a INSRR. The following applies: at 10 µM.
For test [2], the target named is Cyclin-dependent kinase 18 (Homo sapiens) (UniProt Q07002). Briefly: Selectivity interaction (KinomeScan (DiscoverX)) EUB0001619a CDK18. The following applies: at 1 µM.
Test [3] has as its target Ribosomal protein S6 kinase alpha-3 (Homo sapiens, UniProt P51812). Briefly: Selectivity interaction (KinomeScan (DiscoverX)) EUB0000695a RPS6KA3. The following applies: at 100 nM.
Test [4] deals with Interleukin-1 receptor-associated kinase 1 (Homo sapiens) (UniProt P51617). Kind of test: Selectivity interaction (KinomeScan (DiscoverX)) EUB0000695a IRAK1. Conditions: at 100 nM.
Chain of Interleukin-1 receptor-associated kinase 1 (Homo sapiens) (P51617 whole entry, looked up): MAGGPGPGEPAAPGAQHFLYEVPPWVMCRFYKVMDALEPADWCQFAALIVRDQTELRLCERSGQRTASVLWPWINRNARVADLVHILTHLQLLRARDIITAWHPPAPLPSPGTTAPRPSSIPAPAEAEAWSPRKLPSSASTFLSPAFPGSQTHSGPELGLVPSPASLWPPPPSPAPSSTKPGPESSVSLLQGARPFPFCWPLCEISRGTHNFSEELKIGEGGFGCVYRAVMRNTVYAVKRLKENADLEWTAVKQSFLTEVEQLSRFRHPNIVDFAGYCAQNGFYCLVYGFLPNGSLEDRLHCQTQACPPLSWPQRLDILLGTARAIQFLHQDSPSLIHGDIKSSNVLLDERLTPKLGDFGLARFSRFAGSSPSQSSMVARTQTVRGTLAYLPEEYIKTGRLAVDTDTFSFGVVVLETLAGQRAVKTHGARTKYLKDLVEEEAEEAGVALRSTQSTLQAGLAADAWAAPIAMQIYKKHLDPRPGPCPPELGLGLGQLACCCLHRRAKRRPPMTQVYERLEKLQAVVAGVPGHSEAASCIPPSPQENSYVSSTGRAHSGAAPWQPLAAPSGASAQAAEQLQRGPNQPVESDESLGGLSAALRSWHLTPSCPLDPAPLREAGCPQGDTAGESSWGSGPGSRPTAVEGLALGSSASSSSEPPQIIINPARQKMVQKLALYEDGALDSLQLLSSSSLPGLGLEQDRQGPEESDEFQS
Test [5] has as its target SRSF protein kinase 3 (Homo sapiens) (UniProt Q9UPE1). Kind of test: Selectivity interaction (SelectScreen profiling (Invitrogen)) EUB0000607a SRPK3. Conditions: at 2 µM.
Test [6] concerns the target Cyclin-dependent kinase 13 (Homo sapiens, UniProt Q14004). Conditions: at 10 µM.
The target in test [7] is T1, Tyrosine-protein kinase Mer (Homo sapiens) (UniProt Q12866).
T1 sequence (whole entry): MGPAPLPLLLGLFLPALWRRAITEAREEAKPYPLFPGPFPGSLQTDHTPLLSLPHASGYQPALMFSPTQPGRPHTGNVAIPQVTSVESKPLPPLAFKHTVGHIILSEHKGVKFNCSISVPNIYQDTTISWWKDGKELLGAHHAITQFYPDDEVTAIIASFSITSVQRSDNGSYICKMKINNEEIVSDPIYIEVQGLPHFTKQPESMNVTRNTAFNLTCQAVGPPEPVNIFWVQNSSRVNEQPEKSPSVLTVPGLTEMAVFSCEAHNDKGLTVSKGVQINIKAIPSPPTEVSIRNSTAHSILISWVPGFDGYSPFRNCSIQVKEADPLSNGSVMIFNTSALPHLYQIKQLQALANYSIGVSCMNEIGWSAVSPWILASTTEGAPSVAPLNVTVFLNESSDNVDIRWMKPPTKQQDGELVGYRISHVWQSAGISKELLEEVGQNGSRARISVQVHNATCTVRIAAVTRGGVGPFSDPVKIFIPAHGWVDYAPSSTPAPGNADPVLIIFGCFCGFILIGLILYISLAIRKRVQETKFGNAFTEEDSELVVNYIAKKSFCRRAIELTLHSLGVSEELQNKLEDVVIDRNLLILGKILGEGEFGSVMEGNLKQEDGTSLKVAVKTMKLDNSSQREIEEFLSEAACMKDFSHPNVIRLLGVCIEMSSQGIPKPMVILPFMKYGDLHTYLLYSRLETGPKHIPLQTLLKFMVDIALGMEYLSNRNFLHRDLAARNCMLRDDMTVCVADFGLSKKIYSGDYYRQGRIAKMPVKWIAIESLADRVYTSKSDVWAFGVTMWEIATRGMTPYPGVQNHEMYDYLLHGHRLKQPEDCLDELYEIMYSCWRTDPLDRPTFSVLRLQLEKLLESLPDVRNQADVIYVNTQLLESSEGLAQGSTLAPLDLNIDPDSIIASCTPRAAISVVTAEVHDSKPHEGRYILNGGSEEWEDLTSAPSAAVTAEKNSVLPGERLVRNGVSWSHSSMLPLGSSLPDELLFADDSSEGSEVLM
Briefly: Selectivity interaction (KinomeScan (DiscoverX)) EUB0000045b MERTK.

Test [8] concerns the target T2, cAMP-dependent protein kinase catalytic subunit PRKX (Homo sapiens) (UniProt P51817).
T2 sequence (whole entry): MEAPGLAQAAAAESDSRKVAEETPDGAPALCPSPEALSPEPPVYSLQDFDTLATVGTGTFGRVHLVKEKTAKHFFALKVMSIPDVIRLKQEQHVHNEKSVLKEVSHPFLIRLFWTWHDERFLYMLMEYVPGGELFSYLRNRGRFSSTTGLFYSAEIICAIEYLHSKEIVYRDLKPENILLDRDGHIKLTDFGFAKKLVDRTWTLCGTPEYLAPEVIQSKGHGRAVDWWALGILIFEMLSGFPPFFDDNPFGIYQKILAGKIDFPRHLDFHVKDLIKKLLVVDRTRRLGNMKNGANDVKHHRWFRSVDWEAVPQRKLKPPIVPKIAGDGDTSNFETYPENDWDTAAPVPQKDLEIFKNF
Kind of test: Selectivity interaction (ProQinase) EUB0000171b PRKX.

Test [9] concerns the target T3, Serine/threonine-protein kinase 17A (Homo sapiens) (UniProt Q9UEE5).
T3 sequence (whole entry): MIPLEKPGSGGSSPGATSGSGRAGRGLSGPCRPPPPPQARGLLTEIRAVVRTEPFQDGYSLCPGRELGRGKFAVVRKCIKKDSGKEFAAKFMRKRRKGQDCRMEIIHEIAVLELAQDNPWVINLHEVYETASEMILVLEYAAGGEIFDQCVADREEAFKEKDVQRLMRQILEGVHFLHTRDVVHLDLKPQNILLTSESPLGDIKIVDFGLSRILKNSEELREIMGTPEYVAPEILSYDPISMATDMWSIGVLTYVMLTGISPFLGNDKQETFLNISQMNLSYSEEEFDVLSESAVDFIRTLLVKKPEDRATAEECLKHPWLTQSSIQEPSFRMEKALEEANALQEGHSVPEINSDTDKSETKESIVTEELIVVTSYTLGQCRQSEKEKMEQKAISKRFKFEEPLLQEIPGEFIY
Kind of test: Selectivity interaction (Ambit KINOMEscan and KiNATiv profiling in Jurkat cells) EUB0000090b STK17A. Format: cell-based. The following applies: at 1 µM.

The target of test [10] is Adenosine receptor A2a (Homo sapiens, UniProt P29274). Kind of test: Selectivity interaction (Panel of kinases, GPCRs, ion channels and transporters (enzymatic assay)) EUB0000223bCl ADORA2A.
Chain of Adenosine receptor A2a (P29274 whole entry): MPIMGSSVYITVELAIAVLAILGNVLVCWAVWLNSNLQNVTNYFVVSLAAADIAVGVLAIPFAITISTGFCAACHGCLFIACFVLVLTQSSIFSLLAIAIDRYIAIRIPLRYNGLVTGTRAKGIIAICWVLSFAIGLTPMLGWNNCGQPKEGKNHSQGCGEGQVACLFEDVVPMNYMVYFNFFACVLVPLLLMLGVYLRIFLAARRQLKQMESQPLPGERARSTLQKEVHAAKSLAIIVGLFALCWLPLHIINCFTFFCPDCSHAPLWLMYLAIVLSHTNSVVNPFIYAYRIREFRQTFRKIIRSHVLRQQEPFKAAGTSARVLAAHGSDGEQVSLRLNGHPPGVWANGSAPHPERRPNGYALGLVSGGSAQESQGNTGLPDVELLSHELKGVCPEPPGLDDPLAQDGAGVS
For test [11], the target named is MAP kinase-activated protein kinase 2 (Homo sapiens, UniProt P49137). Briefly: Selectivity interaction (KinomeScan (DiscoverX)) EUB0000618a MAPKAPK2. Conditions: at 10 µM.
Chain of MAP kinase-activated protein kinase 2 (P49137 whole entry, looked up): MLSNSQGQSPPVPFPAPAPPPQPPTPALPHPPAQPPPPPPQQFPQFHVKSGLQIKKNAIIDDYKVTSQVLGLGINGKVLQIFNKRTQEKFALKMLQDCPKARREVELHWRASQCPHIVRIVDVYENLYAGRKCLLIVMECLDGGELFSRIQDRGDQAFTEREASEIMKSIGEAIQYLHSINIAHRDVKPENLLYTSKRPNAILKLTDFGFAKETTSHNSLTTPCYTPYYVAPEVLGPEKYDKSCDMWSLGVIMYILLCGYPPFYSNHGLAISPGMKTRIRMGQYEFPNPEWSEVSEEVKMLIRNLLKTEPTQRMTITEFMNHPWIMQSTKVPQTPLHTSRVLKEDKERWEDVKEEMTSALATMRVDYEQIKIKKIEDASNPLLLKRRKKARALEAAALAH
The target of test [12] is T4, Phosphatidylinositol 5-phosphate 4-kinase type-2 beta (Homo sapiens) (UniProt P78356).
T4 sequence (whole entry): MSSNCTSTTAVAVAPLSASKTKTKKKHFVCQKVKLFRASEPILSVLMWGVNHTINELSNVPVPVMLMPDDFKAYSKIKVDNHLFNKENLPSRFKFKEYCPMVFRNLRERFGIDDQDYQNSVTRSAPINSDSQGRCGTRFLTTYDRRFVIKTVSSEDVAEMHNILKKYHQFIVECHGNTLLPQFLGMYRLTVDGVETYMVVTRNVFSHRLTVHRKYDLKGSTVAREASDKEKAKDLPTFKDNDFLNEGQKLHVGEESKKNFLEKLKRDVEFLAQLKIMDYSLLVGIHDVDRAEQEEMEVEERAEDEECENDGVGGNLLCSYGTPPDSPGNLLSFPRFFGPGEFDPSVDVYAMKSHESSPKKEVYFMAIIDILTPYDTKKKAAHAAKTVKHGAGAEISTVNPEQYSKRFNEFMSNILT
Kind of test: Selectivity interaction (KinomeScan (DiscoverX)) EUB0000092b PIP4K2B. Conditions: at 10 µM.

Chain of Ribosomal protein S6 kinase alpha-3 (P51812 whole entry): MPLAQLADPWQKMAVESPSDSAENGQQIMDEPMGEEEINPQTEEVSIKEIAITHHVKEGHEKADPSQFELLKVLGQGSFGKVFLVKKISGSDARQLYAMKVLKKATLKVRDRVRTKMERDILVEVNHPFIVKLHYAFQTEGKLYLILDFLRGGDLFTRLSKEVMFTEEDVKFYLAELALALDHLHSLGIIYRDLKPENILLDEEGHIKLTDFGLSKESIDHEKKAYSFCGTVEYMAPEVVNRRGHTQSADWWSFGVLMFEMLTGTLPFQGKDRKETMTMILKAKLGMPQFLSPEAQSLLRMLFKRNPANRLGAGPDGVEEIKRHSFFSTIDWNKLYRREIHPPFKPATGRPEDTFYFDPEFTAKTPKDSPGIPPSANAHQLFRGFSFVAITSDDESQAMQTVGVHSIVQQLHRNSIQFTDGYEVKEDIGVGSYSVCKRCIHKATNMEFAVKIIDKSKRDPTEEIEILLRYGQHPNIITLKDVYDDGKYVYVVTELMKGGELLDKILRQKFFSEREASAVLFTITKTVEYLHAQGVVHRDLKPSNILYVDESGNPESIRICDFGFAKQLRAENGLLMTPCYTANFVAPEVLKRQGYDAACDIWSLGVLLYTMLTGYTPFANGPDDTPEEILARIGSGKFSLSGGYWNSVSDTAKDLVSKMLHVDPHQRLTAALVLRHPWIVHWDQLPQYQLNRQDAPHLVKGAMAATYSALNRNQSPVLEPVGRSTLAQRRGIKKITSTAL
Chain of SRSF protein kinase 3 (Homo sapiens) (Q9UPE1 whole entry): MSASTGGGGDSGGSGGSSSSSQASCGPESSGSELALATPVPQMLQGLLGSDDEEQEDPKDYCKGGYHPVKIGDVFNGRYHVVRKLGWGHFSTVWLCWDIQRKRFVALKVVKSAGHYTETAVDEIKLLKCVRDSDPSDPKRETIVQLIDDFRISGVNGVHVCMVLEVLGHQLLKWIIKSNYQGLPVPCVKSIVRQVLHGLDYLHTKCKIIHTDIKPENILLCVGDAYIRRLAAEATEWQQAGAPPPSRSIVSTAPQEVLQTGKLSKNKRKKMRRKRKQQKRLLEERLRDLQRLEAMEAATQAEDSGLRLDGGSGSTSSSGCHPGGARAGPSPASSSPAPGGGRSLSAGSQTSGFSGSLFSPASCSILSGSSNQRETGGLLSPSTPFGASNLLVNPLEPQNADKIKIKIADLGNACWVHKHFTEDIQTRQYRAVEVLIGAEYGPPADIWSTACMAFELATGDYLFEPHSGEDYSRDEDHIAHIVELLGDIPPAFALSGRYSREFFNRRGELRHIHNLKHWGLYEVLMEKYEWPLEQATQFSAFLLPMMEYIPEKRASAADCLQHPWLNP
Chain of Insulin receptor-related protein (Homo sapiens) (P14616 27-742 limits assumed): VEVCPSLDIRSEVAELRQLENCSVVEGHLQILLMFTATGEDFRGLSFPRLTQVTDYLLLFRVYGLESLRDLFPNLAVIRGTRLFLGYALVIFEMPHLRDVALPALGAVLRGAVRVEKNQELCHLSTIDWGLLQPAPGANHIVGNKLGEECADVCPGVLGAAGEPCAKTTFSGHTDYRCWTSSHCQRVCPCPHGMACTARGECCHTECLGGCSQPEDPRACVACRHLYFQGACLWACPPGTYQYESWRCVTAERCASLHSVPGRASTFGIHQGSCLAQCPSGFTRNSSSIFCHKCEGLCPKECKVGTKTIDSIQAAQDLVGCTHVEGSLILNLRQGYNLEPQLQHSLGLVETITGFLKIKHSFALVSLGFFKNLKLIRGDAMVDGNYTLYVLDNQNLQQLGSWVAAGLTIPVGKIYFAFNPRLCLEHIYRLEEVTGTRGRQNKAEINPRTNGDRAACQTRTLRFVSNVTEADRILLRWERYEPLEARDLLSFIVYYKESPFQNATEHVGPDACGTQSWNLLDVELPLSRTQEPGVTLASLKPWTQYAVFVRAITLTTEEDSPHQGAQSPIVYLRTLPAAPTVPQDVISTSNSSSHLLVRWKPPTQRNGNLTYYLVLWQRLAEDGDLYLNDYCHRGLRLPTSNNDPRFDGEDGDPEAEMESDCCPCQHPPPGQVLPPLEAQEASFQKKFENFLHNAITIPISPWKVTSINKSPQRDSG
Chain of Insulin receptor-related protein (Homo sapiens) (P14616 747-1297 limits assumed): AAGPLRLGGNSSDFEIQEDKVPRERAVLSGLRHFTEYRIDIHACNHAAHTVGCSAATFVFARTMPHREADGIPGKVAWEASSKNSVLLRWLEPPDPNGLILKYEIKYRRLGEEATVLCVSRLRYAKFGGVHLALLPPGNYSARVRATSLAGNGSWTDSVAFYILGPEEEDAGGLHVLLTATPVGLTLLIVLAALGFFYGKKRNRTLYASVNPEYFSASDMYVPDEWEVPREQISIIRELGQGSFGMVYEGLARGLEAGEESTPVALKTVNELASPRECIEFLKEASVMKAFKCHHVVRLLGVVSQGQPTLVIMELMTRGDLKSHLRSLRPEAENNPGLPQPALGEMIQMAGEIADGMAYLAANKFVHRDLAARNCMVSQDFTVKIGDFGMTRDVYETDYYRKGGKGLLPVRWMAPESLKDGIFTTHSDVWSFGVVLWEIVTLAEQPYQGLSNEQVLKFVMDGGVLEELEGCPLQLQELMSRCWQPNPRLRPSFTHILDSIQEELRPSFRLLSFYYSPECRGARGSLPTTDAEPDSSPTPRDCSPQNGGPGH
Chain of Cyclin-dependent kinase 18 (Homo sapiens) (Q07002 whole entry): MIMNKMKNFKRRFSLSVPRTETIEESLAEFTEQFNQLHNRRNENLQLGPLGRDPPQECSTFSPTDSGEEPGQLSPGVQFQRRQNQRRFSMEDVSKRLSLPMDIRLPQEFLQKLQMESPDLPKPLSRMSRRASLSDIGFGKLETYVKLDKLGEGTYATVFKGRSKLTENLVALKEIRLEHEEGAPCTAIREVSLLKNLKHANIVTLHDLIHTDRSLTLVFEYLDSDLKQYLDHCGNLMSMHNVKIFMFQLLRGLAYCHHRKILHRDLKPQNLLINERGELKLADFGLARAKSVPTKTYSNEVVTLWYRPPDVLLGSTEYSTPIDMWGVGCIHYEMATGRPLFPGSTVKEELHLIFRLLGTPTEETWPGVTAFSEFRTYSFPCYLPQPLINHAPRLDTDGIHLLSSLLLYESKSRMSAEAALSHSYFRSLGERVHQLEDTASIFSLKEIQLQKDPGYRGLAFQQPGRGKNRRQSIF

In test [1], `COCC(=O)NC/C=C/c1ccc2ncnc(Nc3ccc(Oc4ccc(C)nc4)c(C)c3)c2c1` [CP-724714] displayed a % of control of 100%. Take `N#Cc1cccc(-c2c[nH]c3ncnc(N4CCOCC4)c23)c1`: the % of control in [2] is 100%. In the case of `Cc1cc(F)c(C(=O)Nc2cccc(-c3nncn3C(C)C)n2)cc1-n1cnc(C2CC2)c1`, the % of control in test [3] was 98%; in test [4], 96%. In turn, `CNC(=O)Nc1ccc(-c2nc(N3CC4CCC(C3)O4)c3cnn(C4CCC5(CC4)OCCO5)c3n2)cc1` showed a % of inhibition in test [5] of 6%. In turn, `Cc1cc([C@@H](C)Nc2ccccc2C(=O)O)c2nc(N3CCOCC3)cc(=O)n2c1` [AZD-6482] yielded a % of control in test [6] of 88%. `C=CC(=O)Nc1cc(-n2c(=O)ccc3cnc4ccc(-c5ccc(NS(C)(=O)=O)cc5)cc4c32)ccc1C`: the results for the % of control in [7] (at 1 µM) and in test [7] (at 10 µM) were 72% and 100%, respectively.

As for `C=CC(=O)Nc1cccc(C(=O)Nc2ccc(Nc3cc(-c4[nH]c(SC)nc4C)ccn3)cc2)c1`, the % of control stood at 86% in [8] (at 1 µM) and 61% in test [8] (at 5 µM).

The compound `CN(C)C/C=C/C(=O)Nc1ccc(C(=O)N2CCCC(Nc3ncc(Cl)c(-c4c[nH]c5ccccc45)n3)C2)cc1` (centres undefined) yielded a % of control in test [9] of 70%. Take `COc1cc(C(=O)N2CC[C@@H](O)[C@@H](N)C2)cc2nc(-c3cc4ccccc4n3CC3CC3)n(C)c12`: the pXC50 in [10] is under 4.5 M. In [11], `O[C@H]1CC[C@H](Nc2ncc3nc(Nc4c(F)cc(F)cc4F)n([C@H]4CCOC4)c3n2)CC1` came in with a % of control of 71%. Turning to `CCC(=O)N1CCN(c2ccc(-n3c(=O)ccc4cnc5ccc(-c6cnc7ccccc7c6)cc5c43)cc2C(F)(F)F)CC1`, the % of control in test [12] came out at 100%.

The values above are taken from ChEMBL document CHEMBL5465560, “Selectivity Literature for EUbOPEN Chemogenomic Library” (2024).
